Measurements reported in ChEMBL document CHEMBL1147897, “Synthesis of enantiomerically pure milnacipran analogs and inhibition of dopamine, serotonin, and norepinephrine transporters” (Bioorg Med Chem Lett, 2007).
Values joined by “and” are separate entries in the source; they are usually repeats but may differ in a detail not shown here. Equal values may be shown once.

Legend:
Format in all cases: functional, subcellular, Brain
[1] = biological target: Sodium-dependent dopamine transporter (Rattus norvegicus, UniProt P23977); test: Inhibition of [3H]5-HT uptake at DA transporter in Wistar rat synaptosomes
[2] = biological target: Sodium-dependent serotonin transporter (Rattus norvegicus, UniProt P31652); test: Inhibition of [3H]5-HT uptake at 5HT transporter in Wistar rat synaptosomes
[3] = biological target: Norepinephrine transporter (Rattus norvegicus, UniProt Q9WTR4); test: Inhibition of [3H]5-HT uptake at NE transporter in Wistar rat synaptosomes
Chain of Norepinephrine transporter (Q9WTR4 whole entry): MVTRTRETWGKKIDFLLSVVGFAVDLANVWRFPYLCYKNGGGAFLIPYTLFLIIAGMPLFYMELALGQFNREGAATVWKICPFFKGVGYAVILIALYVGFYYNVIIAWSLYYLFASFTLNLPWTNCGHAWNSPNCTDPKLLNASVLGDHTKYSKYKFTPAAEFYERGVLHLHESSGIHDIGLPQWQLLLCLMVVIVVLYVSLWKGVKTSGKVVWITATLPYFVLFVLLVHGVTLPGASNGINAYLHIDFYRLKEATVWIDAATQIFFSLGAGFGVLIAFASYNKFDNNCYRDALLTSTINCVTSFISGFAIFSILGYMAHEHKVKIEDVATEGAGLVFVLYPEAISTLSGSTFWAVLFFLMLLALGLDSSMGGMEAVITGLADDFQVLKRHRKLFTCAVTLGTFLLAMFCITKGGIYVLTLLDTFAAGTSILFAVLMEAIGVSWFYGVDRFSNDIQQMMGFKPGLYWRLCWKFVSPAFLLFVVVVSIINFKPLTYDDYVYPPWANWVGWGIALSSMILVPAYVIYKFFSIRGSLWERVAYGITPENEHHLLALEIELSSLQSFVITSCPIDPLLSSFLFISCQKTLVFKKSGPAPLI

Chain of Sodium-dependent dopamine transporter (P23977 whole entry): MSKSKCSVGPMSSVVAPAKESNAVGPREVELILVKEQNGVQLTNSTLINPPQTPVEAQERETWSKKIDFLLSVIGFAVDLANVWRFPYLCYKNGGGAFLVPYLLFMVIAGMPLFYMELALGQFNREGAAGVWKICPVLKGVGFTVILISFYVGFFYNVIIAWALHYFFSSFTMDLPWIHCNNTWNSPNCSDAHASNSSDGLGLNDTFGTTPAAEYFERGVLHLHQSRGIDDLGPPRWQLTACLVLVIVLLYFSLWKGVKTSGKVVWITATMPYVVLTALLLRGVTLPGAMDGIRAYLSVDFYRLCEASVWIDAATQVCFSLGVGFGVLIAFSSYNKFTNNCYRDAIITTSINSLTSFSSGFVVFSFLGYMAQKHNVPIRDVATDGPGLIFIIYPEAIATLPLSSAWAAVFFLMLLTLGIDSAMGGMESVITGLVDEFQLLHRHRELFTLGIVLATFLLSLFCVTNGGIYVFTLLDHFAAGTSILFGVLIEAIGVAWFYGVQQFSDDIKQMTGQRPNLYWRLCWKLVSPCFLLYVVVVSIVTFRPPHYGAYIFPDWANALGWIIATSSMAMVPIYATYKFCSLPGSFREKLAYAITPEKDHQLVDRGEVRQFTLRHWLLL
Chain of Sodium-dependent serotonin transporter (P31652 whole entry): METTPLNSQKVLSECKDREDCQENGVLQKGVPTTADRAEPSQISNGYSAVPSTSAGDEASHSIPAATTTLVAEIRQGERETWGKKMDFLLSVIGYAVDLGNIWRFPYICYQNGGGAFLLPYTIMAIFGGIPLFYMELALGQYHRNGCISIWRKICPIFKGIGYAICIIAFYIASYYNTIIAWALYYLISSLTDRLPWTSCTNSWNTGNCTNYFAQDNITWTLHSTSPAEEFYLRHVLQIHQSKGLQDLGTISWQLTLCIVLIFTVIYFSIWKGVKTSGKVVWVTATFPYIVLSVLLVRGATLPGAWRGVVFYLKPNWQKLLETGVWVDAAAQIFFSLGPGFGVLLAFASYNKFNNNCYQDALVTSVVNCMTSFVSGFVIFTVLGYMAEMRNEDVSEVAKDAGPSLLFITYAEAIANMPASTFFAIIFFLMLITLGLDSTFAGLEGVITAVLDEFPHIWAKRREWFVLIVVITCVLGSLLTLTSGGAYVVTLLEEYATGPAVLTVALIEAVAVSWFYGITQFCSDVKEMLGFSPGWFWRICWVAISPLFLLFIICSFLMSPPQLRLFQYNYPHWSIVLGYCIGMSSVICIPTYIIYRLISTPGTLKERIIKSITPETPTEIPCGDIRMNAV

CCN(CC)C(=O)[C@]1(c2ccc(Cl)cc2)C[C@@H]1CN
IC50 [1]: 3700 nM | IC50 [2]: 190 nM

CCN(CC)C(=O)[C@]1(c2ccc(Cl)c(Cl)c2)C[C@@H]1CN
IC50 [1]: 540 nM | IC50 [3]: 10 nM | IC50 [2]: 84 nM

CCN(CC)C(=O)[C@]1(c2ccc(OC)cc2)C[C@@H]1CN
IC50 [3]: 140 nM | IC50 [2]: 230 nM

CCN(CC)C(=O)[C@]1(c2cccc3ccccc23)C[C@@H]1CN
IC50 [1]: 5300 nM | IC50 [3]: 200 nM | IC50 [2]: 1200 nM

CCN(CC)C(=O)[C@]1(c2cccs2)C[C@@H]1CN
IC50 [2]: 250 nM and 520 nM

CCN(CC)C(=O)[C@]1(c2ccsc2)C[C@@H]1CN
IC50 [3]: 410 nM | IC50 [2]: 250 nM

CCN(CC)C(=O)[C@@]1(c2ccc(Cl)cc2)C[C@H]1CN
IC50 [2]: 790 nM

CCN(CC)C(=O)[C@@]1(c2ccc(OC)cc2)C[C@H]1CN
IC50 [3]: 35 nM | IC50 [2]: 510 nM

CCN(CC)C(=O)[C@@]1(c2cccc3ccccc23)C[C@H]1CN
IC50 [1]: 10000 nM | IC50 [3]: 370 nM | IC50 [2]: 7100 nM

CCN(CC)C(=O)[C@@]1(c2ccsc2)C[C@H]1CN
IC50 [1]: 10000 nM | IC50 [3]: 19 nM | IC50 [2]: 190 nM

CCN(CC)C(=O)[C@]1(c2ccc(F)cc2)C[C@@H]1CN
IC50 [1]: 10000 nM | IC50 [3]: 500 nM | IC50 [2]: 320 nM

CCN(CC)C(=O)[C@]1(c2ccc3ccccc3c2)C[C@@H]1CN
IC50 [1]: 140 nM | IC50 [3]: 5 nM | IC50 [2]: 18 nM

CCN(CC)C(=O)[C@@]1(c2ccc3ccccc3c2)C[C@H]1CN
IC50 [1]: 1400 nM | IC50 [3]: 29 nM | IC50 [2]: 130 nM

CCN(CC)C(=O)[C@@]1(c2cccc(Cl)c2)C[C@H]1CN
IC50 [1]: 9000 nM | IC50 [3]: 33 nM | IC50 [2]: 86 nM

CCN(CC)C(=O)[C@@]1(c2ccc(F)cc2)C[C@H]1CN
IC50 [3]: 63 nM | IC50 [2]: 210 nM

CCN(CC)C(=O)[C@]1(c2cccc(Cl)c2)C[C@@H]1CN
IC50 [3]: 38 nM | IC50 [2]: 170 nM

CCN(CC)C(=O)[C@@]1(c2ccc(Cl)c(Cl)c2)C[C@H]1CN
IC50 [1]: 1700 nM | IC50 [3]: 26 nM | IC50 [2]: 440 nM
